A short description of data set [1]: Inhibition of chemotaxis in human polymorphonuclear leukocytes assessed as inhibition of migration towards zymosan-activated human serum at 100 ug/ml after 30 mins by Boyden chamber technique. As to conditions: 0.5 h. It counts as functional.
Data set [2] can be described thus: Cytotoxicity against human polymorphonuclear leukocyte assessed as cell viability at 50 to 100 ug/ml by trypan blue exclusion method. As to conditions: polymorphonuclear leukocytes, read-out: INH.
Data set [3] in a line: Inhibition of chemotaxis in human polymorphonuclear leukocytes assessed as inhibition of migration towards zymosan-activated human serum at 50 ug/ml after 30 mins by Boyden chamber technique. Format: functional. Conditions: 0.5 h.
A short description of data set [4]: Inhibition of chemotaxis in human polymorphonuclear leukocytes assessed as inhibition of migration towards zymosan-activated human serum at 10 ug/ml after 30 mins by Boyden chamber technique. Conditions: 0.5 h. It counts as functional.
A short description of data set [5]: Inhibition of chemotaxis in human polymorphonuclear leukocytes assessed as inhibition of migration towards zymosan-activated human serum at 1 ug/ml after 30 mins by Boyden chamber technique. As to conditions: 0.5 h. It counts as functional.
Data set [6] in a line: Inhibition of chemotaxis in human polymorphonuclear leukocytes assessed as inhibition of migration towards zymosan-activated human serum at 0.1 ug/ml after 30 mins by Boyden chamber technique. It counts as functional. Conditions: 0.5 h.

As usually defined, the inhibition is the percentage by which the read-out fell short of the control.

For `CC/C=C\C/C=C\C/C=C\CCCCCCCC(=O)OC[C@H](CO[C@@H]1O[C@H](CO)[C@H](O)[C@H](O)C1O)OC(=O)CCCCCCC/C=C\C/C=C\C/C=C\CC` (single isomer, unassigned), the inhibition at 100 µg/mL in data set [1] amounted to 82%. Also, the viability in data set [2] is 100%. Further, the inhibition at 50 µg/mL in data set [3] was determined as 77%. Further, the inhibition at 10 µg/mL in data set [4] stood at 62%. Moreover, the inhibition at 1 µg/mL in data set [5] came to 64%. Also, in data set [6], the inhibition at 0.1 µg/mL turned out to be 7%.

These data come from ChEMBL document CHEMBL1146557, “An antiinflammatory galactolipid from rose hip (Rosa canina) that inhibits chemotaxis of human peripheral blood neutrophils in vitro” (J Nat Prod, 2003).
